Measurements as given in patent US8461328B2, “Tricyclic heterocyclic compounds, compositions and methods of use thereof” (Genentech, Inc., priority 2010, dated 2013).

Experiments:
Type in all cases: biochemical
JAK1 = molecular target: T1, JAK1 (Homo sapiens, UniProt P23458); assay: JAK1 inhibition (Table 4); conditions: read-out: JAK1 Ki
T1 construct: made in house; host or cells: SF9 insect cells (baculovirus)

JAK2 = molecular target: T2, JAK2 (Homo sapiens, UniProt O60674); assay: JAK2 inhibition (Table 4); conditions: read-out: JAK2 Ki
T2 construct: made in house; host or cells: SF9 insect cells (baculovirus)
T2 sequence (O60674 812-1132): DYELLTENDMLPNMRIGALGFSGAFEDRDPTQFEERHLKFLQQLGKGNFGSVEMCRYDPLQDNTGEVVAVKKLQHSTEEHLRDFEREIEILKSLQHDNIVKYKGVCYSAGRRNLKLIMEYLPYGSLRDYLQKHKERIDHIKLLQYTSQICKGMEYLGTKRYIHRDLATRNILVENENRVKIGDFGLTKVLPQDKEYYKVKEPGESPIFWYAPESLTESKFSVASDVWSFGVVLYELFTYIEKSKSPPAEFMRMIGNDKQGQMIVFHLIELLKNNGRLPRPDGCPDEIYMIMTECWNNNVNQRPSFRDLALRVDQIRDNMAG

JAK3 = molecular target: T3, JAK3 (Homo sapiens, UniProt P52333); assay: JAK3 inhibition (Table 4); conditions: read-out: JAK3 Ki
T3 construct: made in house; host or cells: SF9 insect cells (baculovirus)
T3 sequence (P52333 783-1124): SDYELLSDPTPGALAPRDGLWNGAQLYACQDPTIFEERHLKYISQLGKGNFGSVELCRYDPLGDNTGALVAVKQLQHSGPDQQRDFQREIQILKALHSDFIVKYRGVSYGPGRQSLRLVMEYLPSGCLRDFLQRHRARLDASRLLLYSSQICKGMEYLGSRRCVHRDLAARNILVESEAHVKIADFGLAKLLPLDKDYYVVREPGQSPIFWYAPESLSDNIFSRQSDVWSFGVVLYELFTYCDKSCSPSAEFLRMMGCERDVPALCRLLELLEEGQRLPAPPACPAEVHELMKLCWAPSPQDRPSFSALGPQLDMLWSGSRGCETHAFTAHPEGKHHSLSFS

TYK2 = molecular target: T4, TYK2 (Homo sapiens, UniProt P29597); assay: TYK2 inhibition (Table 4)
T4 construct: made in house; host or cells: SF9 insect cells (baculovirus)
T4 sequence (P29597 873-1187): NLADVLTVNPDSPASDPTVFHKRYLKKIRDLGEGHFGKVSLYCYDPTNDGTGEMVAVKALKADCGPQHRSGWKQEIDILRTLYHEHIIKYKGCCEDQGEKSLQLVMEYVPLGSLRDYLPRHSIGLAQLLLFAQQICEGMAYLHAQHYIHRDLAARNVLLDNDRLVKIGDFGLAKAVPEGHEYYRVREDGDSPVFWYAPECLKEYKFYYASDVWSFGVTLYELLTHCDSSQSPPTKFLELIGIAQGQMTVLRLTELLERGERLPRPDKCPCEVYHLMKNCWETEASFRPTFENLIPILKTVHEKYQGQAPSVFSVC

T1 sequence (P23458 852-1154): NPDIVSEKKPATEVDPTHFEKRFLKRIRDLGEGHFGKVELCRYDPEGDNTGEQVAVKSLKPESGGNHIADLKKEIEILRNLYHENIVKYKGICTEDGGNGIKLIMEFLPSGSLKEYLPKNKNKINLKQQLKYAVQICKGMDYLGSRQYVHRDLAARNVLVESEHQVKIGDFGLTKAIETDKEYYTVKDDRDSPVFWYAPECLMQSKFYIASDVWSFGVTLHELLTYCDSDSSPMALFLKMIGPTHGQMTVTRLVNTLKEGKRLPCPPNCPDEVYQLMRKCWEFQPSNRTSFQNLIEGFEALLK

SMILES | Ki (JAK1) [µM] | Ki (JAK2) [µM] | Ki (JAK3) [µM] | Ki (TYK2) [µM]
FC(F)c1nc2cnc3[nH]ccc3c2n1C1CCN(Cc2ccccc2)CC1 [Example 299, 1-(1-Benzyl-piperidin-4-yl)-2-difluoromethyl-1,6-dihydro-1,3,5,6-tetraaza-as-indacene] | 0.0025 | 0.00453 | 0.00453 | 0.127
COC[C@H](C)n1c(C)nc2cnc3[nH]ccc3c21 [Example 424, 1-((S)-2-Methoxy-1-methyl-ethyl)-2-methyl-1,6-dihydro-1,3,5,6-tetraaza-as-indacene] | 0.0463 | 0.0633 | 0.0329 | 0.317
c1ccc(CCN2CCC[C@@H](n3cnc4cnc5[nH]ccc5c43)C2)cc1 [Example 234, 1-((R)-1-Phenthyl-piperidin-3-yl)-1,6-dihydro-1,3,5,6-tetraaza-as-indacene] | 0.0633 | 0.179 | 0.132 | 1.76
C[C@@H](O)c1nc2cnc3[nH]ccc3c2n1C1CCC(CC#N)CC1 (stereo partly drawn) [Example 743, {4-[2-((R)-1-Hydroxy-ethyl)-6H-1,3,5,6-tetraaza-as-indacen-1-yl]cyclohexyl}acetonitrile] | 0.00059 | 0.00368 | 0.0141 | 0.00123
N#CCCN1[C@@H]2CC[C@H]1C[C@H](n1cnc3cnc4[nH]ccc4c31)C2 [Example 98, 3-[(1S,3S,5R)-3-(6H-1,3,5,6-Tetraaza-as-indacen-1-yl)-8-aza-bicyclo[3.2.1]oct-8-yl]propionitrile] | 0.00204 | 0.00163 | 0.0118 | 0.00864
NC(=O)CN1CCC[C@@H](n2cnc3cnc4[nH]ccc4c32)C1 [Example 11, 2-[(R)-3-(6H-1,2,3,5,6-Tetraaza-as-indacen-1-yl)-piperidin-1-yl]acetamide] | 0.0173 | 0.0374 | 0.0945 | 0.176
CCN1CCC(n2c(CNS(C)(=O)=O)nc3cnc4[nH]ccc4c32)C(F)(F)C1 (stereo not shown) [Example 915, N-[1-(1-Ethyl-3,3-difluoro-piperidin-4-yl)-1,6-dihydro-1,3,5,6-tetraaza-as-indacen-2-ylmethyl]-methanesulfonamide] | 0.00549 | 0.0282 | 0.0222 | 0.101
c1cc2c(ncc3nnn(C4CCOCC4)c32)[nH]1 [Example 467, 1-(Tetrahydro-pyran-4-yl)-1,6-dihydro-1,2,3,5,6-pentaaza-as-indacene] | 0.0323 | 0.0778 | 0.429 | 0.23
COC(=O)NC1CCC(n2nnc3cnc4[nH]ccc4c32)C1 (racemic) [Example 621, Racemic trans [3-(6H-1,2,3,5,6-Pentaaza-as-indacen-1-yl)-cyclopentyl]-carbamic acid methyl ester] | 0.00878 | 0.0232 | 0.148 | 0.124
NC(=O)Cc1nc2cnc3[nH]ccc3c2n1C1CCN(Cc2ccccc2)CC1 [Example 245, 2-[1-(1-Benzyl-piperidin-4-yl)-1,6-dihydro-1,3,5,6-tetraaza-as-indacen-2-yl]-acetamide] | 0.00984 | 0.0431 | 0.0194 | 0.468
CC1CN(S(C)(=O)=O)CCC1n1cnc2cnc3[nH]ccc3c21 (racemic) [Example 345, 1-(1-Methanesulfonyl-3-methyl-piperidin-4-yl)-1,6-dihydro-1,3,5,6-tetraaza-as-indacene] | 0.00912 | 0.00967 | 0.354 | 0.0373
CC(C)CN[C@H]1CC[C@H](n2cnc3cnc4[nH]ccc4c32)CC1 [Example 569, trans Isobutyl-[4-(6H-1,3,5,6-tetraaza-as-indacen-1-yl)-cyclohexyl]-amine] | 0.0126 | 0.0958 | 0.448 | 0.254
CNC(=O)N(C)[C@H]1CC[C@H](n2c(C)nc3cnc4[nH]ccc4c32)CC1 [Example 608, Trans 1,3-dimethyl-1-[4-(2-methyl-6H-1,2,3,5,6-tetraaza-as-indacen-1-yl)-cyclohexyl]-urea] | 0.0178 | 0.0124 | 0.158 | 0.182
Fc1cccc(CN2CCC[C@@H](n3cnc4cnc5[nH]ccc5c43)C2)c1 [Example 47, 1-[(R)-1-(3-Fluoro-benzyl)-piperidin-3-yl]-1,6-dihydro-1,3,5,6-tetraaza-as-indacene] | 0.0131 | 0.0289 | 0.0522 | 0.101
N#CCC(=O)N1CCCCC(n2cnc3cnc4[nH]ccc4c32)C1 (racemic) [Example 988, 3-Oxo-3-[3-(6H-1,3,5,6-tetraaza-as-indacen-1-yl)-azepan-1-yl]-propionitrile] | 0.00419 | 0.00623 | 0.00933 | 0.0291
CS(=O)(=O)NC1CCC(n2cnc3cnc4[nH]ccc4c32)C1 (racemic) [Example 630, Racemic trans N-[3-(6H-1,2,3,5,6-tetraaza-as-indacen-1-yl)-cyclopentyl]-methanesulfonamide] | 0.00259 | 0.00662 | 0.0184 | 0.0258
N#CCCN1CCC(n2c(CC(=O)N3CCC(F)(F)CC3)nc3cnc4[nH]ccc4c32)CC1 [Example 240, 3-(4-{2-[2-(4,4-Difloro-piperidin-1-yl)-2-oxo-ethyl]-6H-1,3,5,6-tetraaza-as-indacen-1-yl)-piperidin-1-yl]-propionitrile] | 0.00692 | 0.056 | 0.00735 | 0.0727
O=S(=O)(c1cccnc1)N1CCC(n2cnc3cnc4[nH]ccc4c32)CC1 [Example 88, 1-[1-(Pyridine-3-sulfonyl)-piperidin-4-yl]-1,6-dihydro-1,3,5,6-tetraaza-as-indacene] | 0.00898 | 0.0106 | 0.407 | 0.0659
Cc1nc2cnc3[nH]ccc3c2n1C1CCN(CCF)CC1 [Example 513, 1-[1-(2-Fluoro-ethyl)-piperidin-4-yl]-2-methyl-1,6-dihydro-1,3,5,6-tetraaza-as-indacene] | 0.00084 | 0.00216 | 0.00763 | 0.00695
CC(O)c1nc2cnc3[nH]ccc3c2n1C1CCN(S(C)(=O)=O)CC1 (racemic) [Example 527, 1-[1-(1-Methanesulfonyl-piperidin-4-yl)-1,6-dihydro-1,3,5,6-tetraaza-as-indacen-2-yl]-ethanol] | 0.107 | 0.2 | 0.189 | 0.0652
O=C(Cc1nc2cnc3[nH]ccc3c2n1C1CCCOC1)NC1CCOCC1 (racemic) [Example 983, N-(Tetrahydro-pyran-4-yl)-2-[1-(tetrahydro-pyran-3-yl)-1,6-dihydro-1,3,5,6-tetraaza-as-indacen-2-yl]-acetamide] | 0.0376 | 0.157 | 0.1 | 0.3
CC(C)NC(=O)C(C)c1nc2cnc3[nH]ccc3c2n1C1CCN(CCC#N)CC1 (racemic) [Example 172, Racemic 2-{1-[1-(2-Cyano-ethyl)-piperidin-4-yl]-1,6-dihydro-1,2,3,5,6-tetraaza-as-indacene-2-yl}-N-isopropyl-propionamide] | 0.141 | 0.251 | 0.0226 | 2.77
